Measurements as given in patent US20040110787A1, “Heteroaryl-ethanolamine derivatives as antiviral agents” (priority 2002, published 2004).

Experiments:
VZV polymerase = VZV polymerase (Varicella-zoster virus, UniProt P09252); assay: VZV polymerase assay (Table 1); assay type: biochemical
HCMV polymerase = target: T1, HCMV polymerase (Human cytomegalovirus, UniProt P08546); assay: HCMV polymerase scintillation proximity assay (SPA); assay type: biochemical; conditions: HCMV polymerase, SPA; read-out: Polymerase IC50 HCMV
T1 construct: made in house; host or cells: recombinant baculovirus-infected SF-9 cells
T1 sequence (P08546 whole entry): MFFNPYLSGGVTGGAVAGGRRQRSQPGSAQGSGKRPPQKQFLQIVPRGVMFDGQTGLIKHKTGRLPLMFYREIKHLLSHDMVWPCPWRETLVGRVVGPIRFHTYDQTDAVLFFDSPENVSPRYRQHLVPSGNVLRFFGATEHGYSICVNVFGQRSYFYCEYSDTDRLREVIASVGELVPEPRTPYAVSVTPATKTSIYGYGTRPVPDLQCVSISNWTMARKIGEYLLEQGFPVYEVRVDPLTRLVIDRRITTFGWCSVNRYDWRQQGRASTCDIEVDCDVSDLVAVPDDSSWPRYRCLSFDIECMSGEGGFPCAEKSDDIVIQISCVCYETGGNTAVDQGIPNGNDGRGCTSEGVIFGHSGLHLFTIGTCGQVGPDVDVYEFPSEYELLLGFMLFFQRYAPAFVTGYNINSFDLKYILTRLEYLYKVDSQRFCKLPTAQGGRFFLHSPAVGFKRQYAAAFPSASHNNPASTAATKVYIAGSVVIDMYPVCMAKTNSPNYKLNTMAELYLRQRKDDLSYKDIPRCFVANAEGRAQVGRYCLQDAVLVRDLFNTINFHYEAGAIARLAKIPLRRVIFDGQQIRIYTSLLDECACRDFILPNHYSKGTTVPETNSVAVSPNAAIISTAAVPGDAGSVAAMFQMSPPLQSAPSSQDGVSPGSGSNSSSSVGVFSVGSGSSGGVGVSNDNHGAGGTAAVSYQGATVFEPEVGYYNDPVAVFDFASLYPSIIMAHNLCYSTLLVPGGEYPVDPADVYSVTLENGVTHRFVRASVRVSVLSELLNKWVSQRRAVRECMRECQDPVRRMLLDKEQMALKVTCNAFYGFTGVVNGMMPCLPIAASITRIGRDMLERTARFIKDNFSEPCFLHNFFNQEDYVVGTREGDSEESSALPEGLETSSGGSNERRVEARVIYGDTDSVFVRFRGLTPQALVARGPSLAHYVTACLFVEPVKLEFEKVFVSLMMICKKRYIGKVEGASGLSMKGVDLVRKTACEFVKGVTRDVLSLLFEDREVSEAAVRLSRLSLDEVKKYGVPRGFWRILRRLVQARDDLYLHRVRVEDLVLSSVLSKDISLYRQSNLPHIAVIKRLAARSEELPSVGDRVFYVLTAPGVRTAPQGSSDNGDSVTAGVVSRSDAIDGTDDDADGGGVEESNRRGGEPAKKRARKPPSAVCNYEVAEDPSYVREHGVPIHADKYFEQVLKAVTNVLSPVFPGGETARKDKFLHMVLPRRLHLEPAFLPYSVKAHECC
Method: The HCMV polymerase assay is performed using a scintillation proximity assay (SPA) as described in several references, such as N. D. Cook, et al., Pharmaceutical Manufacturing International, pages 49-53 (1992); K Takeuchi, Laboratory Practice, September issue (1992); U.S. Pat. No. 4,568,649 (1986); which are incorporated by reference herein. Reactions are performed in 96-well plates. The assay is conducted in 100 μl volume with 5.4 mM HEPES (pH 7.5), 11.7 mM KCl, 4.5 mM MgCl2, 0.36 mg/ml BSA, and 90 nM ^3H-dTTP. Assays are run with and without CHAPS, (3-[(3-Cholamidopropyl)-dimethylammonio]-1-propane-sulfonate) at a final concentration of 2 mM. HCMV polymerase is diluted in enzyme dilution buffer containing 50% glycerol, 250 mM NaCl, 10 mM HEPES (pH 7.5), 100 μg/ml BSA, and 0.01% sodium azide. The HCMV polymerase, which is expressed in, recombinant baculovirus-infected SF-9 cells and purified according to literature procedures, is added at 10% (or 10 μl) of the final reaction volume, i.e., 100 μl. Compounds are diluted in 50% DMSO and 10 μl are added to each well. Control wells contain an equivalent concentration of DMSO. Unless noted otherwise, reactions are initiated via the addition of 6 nM biotinylated poly(dA)-oligo(dT) template/primer to reaction mixtures containing the enzyme, substrate, and compounds of interest. Plates are incubated in a 25° C. or 37° C. H2O bath and terminated via the addition of 40 μl/reaction of 0.5 M EDTA (pH 8) per well. Reactions are terminated within the time-frame during which substrate incorporation is linear and varied depending upon the enzyme and conditions used, i.e., 30 min. for HCMV polymerase. Ten (10) 10 μL of streptavidin-SPA beads (20 mg/ml in PBS/10% glycerol) are added following termination of the reaction. Plates are incubated 10 min. at 37° C., then equilibrated to room temperature, and counted on a Packard Topcount. Linear regressions are performed and IC50's are calculated using computer software.
A modified version of the above HCMV polymerase assay is performed as described above, but with the following changes: Compounds are diluted in 100% DMSO until final dilution into assay buffer. In the previous assay, compounds are diluted in 50% DMSO. 4.5 mM Dithiothreitol (DTT) is added to the polymerase buffer.
All results are listed as Polymerase IC50 ([…]) values. In Table 1, the term “n.d.” refers to activity data not determined.

HSV polymerase = HSV polymerase (Human herpesvirus 1, UniProt P04293); assay: HSV polymerase assay (Table 1); assay type: biochemical
Chain of HSV polymerase (P04293 whole entry): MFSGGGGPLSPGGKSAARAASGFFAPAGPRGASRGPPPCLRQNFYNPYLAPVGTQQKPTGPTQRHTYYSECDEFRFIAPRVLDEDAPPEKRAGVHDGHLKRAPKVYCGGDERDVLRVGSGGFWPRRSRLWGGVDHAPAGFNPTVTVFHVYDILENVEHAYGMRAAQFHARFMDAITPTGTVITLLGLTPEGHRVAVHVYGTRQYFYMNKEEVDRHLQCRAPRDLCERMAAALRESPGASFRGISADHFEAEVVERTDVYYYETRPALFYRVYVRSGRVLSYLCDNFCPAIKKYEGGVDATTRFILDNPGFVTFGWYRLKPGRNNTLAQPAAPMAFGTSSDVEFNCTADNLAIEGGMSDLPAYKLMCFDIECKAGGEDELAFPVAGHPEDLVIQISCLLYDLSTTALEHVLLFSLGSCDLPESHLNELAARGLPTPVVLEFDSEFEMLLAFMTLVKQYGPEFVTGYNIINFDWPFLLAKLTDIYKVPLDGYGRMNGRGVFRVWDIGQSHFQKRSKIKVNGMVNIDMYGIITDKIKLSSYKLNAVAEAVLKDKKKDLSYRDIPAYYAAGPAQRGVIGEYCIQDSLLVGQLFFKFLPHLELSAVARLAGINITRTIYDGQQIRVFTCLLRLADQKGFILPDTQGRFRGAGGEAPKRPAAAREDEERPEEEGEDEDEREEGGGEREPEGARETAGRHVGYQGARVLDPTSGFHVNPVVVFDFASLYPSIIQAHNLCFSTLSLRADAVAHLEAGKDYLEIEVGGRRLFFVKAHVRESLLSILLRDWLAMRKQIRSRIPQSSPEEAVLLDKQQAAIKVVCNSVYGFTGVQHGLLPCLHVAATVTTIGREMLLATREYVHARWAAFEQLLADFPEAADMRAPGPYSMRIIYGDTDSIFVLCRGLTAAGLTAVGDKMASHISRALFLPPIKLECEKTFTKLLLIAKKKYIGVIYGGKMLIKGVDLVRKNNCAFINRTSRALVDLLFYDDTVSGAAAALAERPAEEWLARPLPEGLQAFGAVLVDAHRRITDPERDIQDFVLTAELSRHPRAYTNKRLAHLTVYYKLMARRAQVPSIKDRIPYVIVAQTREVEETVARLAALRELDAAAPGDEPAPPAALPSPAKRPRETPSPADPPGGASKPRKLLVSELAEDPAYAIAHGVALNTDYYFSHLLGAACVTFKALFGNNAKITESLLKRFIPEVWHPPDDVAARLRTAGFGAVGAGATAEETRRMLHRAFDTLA

Chain of VZV polymerase (P09252 whole entry): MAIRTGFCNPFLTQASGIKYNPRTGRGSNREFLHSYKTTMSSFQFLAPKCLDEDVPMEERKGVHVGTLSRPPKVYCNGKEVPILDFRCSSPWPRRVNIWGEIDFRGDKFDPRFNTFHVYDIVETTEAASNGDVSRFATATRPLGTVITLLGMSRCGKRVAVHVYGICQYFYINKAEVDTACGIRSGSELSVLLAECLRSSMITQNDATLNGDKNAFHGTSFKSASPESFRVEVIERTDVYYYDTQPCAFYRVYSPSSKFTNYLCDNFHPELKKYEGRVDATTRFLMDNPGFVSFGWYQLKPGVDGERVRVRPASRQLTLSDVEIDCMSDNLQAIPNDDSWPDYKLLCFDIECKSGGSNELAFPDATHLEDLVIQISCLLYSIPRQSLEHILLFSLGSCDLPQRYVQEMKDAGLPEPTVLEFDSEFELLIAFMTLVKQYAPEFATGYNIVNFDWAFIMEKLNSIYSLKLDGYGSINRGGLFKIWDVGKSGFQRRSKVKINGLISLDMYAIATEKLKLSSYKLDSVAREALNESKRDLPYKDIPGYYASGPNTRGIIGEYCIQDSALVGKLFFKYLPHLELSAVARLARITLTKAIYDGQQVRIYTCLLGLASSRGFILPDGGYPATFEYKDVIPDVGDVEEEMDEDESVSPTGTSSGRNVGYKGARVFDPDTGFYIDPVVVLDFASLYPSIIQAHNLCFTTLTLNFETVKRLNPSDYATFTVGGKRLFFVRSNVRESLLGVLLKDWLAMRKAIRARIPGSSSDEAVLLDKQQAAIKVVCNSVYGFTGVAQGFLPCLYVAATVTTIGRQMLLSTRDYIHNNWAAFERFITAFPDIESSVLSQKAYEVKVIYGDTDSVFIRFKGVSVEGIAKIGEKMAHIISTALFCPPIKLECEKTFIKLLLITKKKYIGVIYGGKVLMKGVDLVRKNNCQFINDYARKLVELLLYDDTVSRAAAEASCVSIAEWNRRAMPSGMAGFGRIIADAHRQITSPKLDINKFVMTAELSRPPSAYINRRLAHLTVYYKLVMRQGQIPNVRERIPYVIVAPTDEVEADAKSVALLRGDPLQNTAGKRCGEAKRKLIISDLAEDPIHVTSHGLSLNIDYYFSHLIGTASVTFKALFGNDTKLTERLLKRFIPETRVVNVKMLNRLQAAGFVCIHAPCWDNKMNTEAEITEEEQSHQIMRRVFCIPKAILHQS

CCn1cc(C(=O)NCc2ccc(Cl)cc2)c(=O)c2cc(CN(C)CC(O)c3cnccn3)sc21 (racemic) [Example 13, rac-N-(4-Chlorobenzyl)-7-ethyl-2-(((2-hydroxy-2-pyrazin-2-ylethyl)(methyl)amino)methyl)-4-oxo-4,7-dihydrothieno[2,3-b]pyridine-5-carboxamide] gave an IC50 (VZV polymerase) of 170 nM, a melting point of 130 to 133 °C and an IC50 (HCMV polymerase) of 370 nM. The IC50 (HSV polymerase) was 550 nM.
CN(Cc1cc2c(=O)c(C(=O)NCc3ccc(Cl)cc3)cn(C)c2s1)CC(O)c1cccnc1 (single isomer, unassigned; (+)) [Example 2, (+)-N-(4-Chlorobenzyl)-2-(((2-hydroxy-2-pyridin-3-ylethyl)(methyl)amino)methyl)-7-methyl-4-oxo-4,7-dihydrothieno[2,3-b]pyridine-5-carboxamide] showed an IC50 (VZV polymerase) of 130 nM, a melting point of 132 to 135 °C and an IC50 (HCMV polymerase) of 80 nM. It also gave an IC50 (HSV polymerase) of 350 nM.
In the case of CN(Cc1cc2c(=O)c(C(=O)NCc3ccc(Cl)cc3)cn(C)c2s1)C[C@@H](O)c1ccccn1 [Example 5, (+)-N-(4-Chlorobenzyl)-2-((((2R)-2-hydroxy-2-pyridin-2-ylethyl)(methyl)amino)methyl)-7-methyl-4-oxo-4,7-dihydrothieno[2,3-b]pyridine-5-carboxamide], the IC50 (VZV polymerase) is reported as 20 nM, the melting point is reported as 139 to 144 °C and the IC50 (HCMV polymerase) is reported as 60 nM. The IC50 (HSV polymerase) was 60 nM.
